Experimental data from patent publication EP1438307B1, “DERIVATIVES OF 4-(THIO- OR SELENOXANTHENE-9-YLIDENE)-PIPERIDINE OR ACRIDINE AND ITS USE AS A SELECTIVE 5-HT2B RECEPTOR ANTAGONIST” (Biofrontera Pharmaceuticals GmbH, priority 2001, dated 2003).

Experiments:
human H1 receptor = molecular target: T1, human H1 receptor (Homo sapiens, UniProt P35367); test: Cloned human H1 receptor binding assay, [3H]-mepyramine; conditions: COS-7 cells transfected with human H1 receptor, read-out: Receptor Affinity: pK Values H1 receptor (converted)
T1 construct: expressed in transfected cells; host or cells: COS-7 (transient)
Method: COS-7 cells were transiently transfected with an expression plasmid pCineohH1, pCineohH2, pCineohH3 and pCineohH4 encoding the human Histamine H1, H2. H3 or H4 receptor, respectively. Transfected cells were harvested after 48 h, homogenized in ice-cold 50 mM Na2/potassium phosphate buffer (pH 7.4) and used for radioligand binding studies. Cell homogenates (40 - 50 µg of protein) were incubated for 30 min at 25°C in 50 mM Na2/potassium phosphate buffer (pH 7.4) in 400 µl with the various concentrations of either [^3H]-mepyramine, [^3H]-thiotidine, [^3H]-R-α-Methylhistamine, and [^3H]-pyramilamine for cells expressing recombinant human H1, H2. H3 and H4 receptors, respectively. The nonspecific binding was defined in the presence of 1 µM mianserin. In displacement studies, cell homogenated were incubated either with 1 nM [^3H]-mepyramine, 15 nM [^3H]-thiotidine, 0.5 nM [^3H]-R-α-Methylhistamine, or 15 nM [^3H]-pyramilamine and increasing concentrations of competing ligands. The incubations were stopped by rapid dilution with 3 ml of ice-cold 50 mM Na2/potassium phosphate buffer (pH 7.4). The bound radioactivity was seperated by filatration through Whatman GF/C filters that had been treated with 0.3 % polyethyleneimine. Filters were washed twice in 3 ml of buffer and radioactivity retained on the filters was measured by liquid scinitllation counting. The concentration of 1-methyl-4-(3-ethoxy-9H-thioxanthene-9-ylidene)-piperidine producing 50% inhibition of binding (IC50) was determined using iterative curve fitting techniques.

5-HT2C receptor = molecular target: T2, 5-HT2C receptor (Homo sapiens, UniProt P28335); test: 5-HT2C receptor binding, [3H]mesulergine competition (counter screen); conditions: read-out: Receptor Affinity: pK Values 5NT2C receptor (converted)
T2 construct: expressed in transfected cells; host or cells: Cos-7
T2 sequence (P28335 33-458): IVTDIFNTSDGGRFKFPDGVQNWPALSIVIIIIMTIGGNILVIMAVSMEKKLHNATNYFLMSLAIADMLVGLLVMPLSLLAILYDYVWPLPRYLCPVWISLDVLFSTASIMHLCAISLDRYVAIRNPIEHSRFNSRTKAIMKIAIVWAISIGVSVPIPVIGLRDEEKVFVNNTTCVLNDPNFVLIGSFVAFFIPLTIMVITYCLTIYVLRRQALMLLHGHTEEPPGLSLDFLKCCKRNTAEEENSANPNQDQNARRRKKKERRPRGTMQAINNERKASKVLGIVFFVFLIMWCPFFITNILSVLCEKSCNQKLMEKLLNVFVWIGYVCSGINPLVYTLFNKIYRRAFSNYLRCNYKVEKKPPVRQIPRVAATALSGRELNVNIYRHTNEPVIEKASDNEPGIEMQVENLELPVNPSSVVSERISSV
Method: 5-HT2C receptors were labelled in choroid plexus, Cos-7 cells expressing the human 5-HT2C receptor and in NIH-3T3 expressing the […]. Assays were conducted as described for the 5-HT2A receptor except that the radioligand was [^3H]mesulergine. The radioligand concentration for competition studies was approximately 0.2 nM while for saturation binding studies the concentration ranged from 0.1 to 18 nM. Non-specific binding was defined with 10 µM unlabelled mesulergine. Competition radioligand binding data was analyzed using a four parameter logistic equation and iterative curve-fitting techniques to obtain estimates of the IC50 and Hill slope. Kd values, determined from saturation binding studies were then used to calculate inhibition dissociation constants (Ki).

human 5-HT2B receptor = molecular target: T3, human 5-HT2B receptor (Homo sapiens, UniProt P41595); test: Cloned human 5-HT2B receptor binding assay, [3H]-5HT; conditions: HEK 293 cells transfected with human 5-HT2B receptor, read-out: Receptor Affinity: pK Values 5HT2B receptor (converted)
T3 construct: expressed in transfected cells; host or cells: HEK 293 (transient)
Method: The following describes an in vitro binding assay utilizing cloned 5-HT2B receptors radiolabelled with [^3H]-5HT. HEK 293 cells transiently transfected with an expression plasmid pXMD1-hu2B encoding the human 5-HT2B receptor (see Schmuck et al., FEBS Lett., 1994, 342, 85-90) were used as described previously (Schmuck et al., Eur. J. Pharmacol., 1996, 8, 959-967). Two days after transfection cells were harvested, pelleted at 500g for 5 min at 4°C, gently resuspended in ice-cold buffer1 (50 mM TRIS pH 7.7, 4 mM CaCl2) and homogenized using a Polytron PT 1200 tissue homogenizer (position 6 for 30 s). Cells were pelleted at 50,000g, 4°C for 10 min, washed with buffer1 and pelleted again. The final pellet was resuspended in incubation buffer (50 mM TRIS pH 7.7, 4 mM CaCl2, 10 µM pargyline and 0.1 % by weight ascorbic acid). The binding assay consisted of 300 µl of membrane suspension (protein concentration = 0.3 to 0.5 mg/ml), 150 µl of competing drug and 50 µl of [^3H]5-HT at a final concentration of 4 to 5 nM. The mixture was incubated at 37°C for 30 min and the assay terminated by rapid filtration and two washing steps with 5 ml of cold 20 mM Tris-HCl pH = 7.5, and 154 mM NaCl over Whatman GFB filters. Filters were counted by liquid scintillation. Non-specific binding was determined in the presence of an excess of 5-HT (100 µM). Bound radioligand represented less than 1 % of free radioligand. In competition experiments, specific binding represented about 60 % of total binding. Results expressed as pKi values are shown in Table 1 Human 5-HT2B receptors were labelled in HEK293 cells as described above, except that the radioligand was [^3H]-5HT and that the assay buffer contained pargyline in a concentration of […] and 0.1 % by weight of ascorbic acid. For competition binding studies the radioligand concentration was approximately 0.4 nM while for saturation binding studies the concentration of [^3H]-5HT ranged from 0.05 to 8 nM. Non-specific binding was defined with […]. Incubations were for 120 min at 4°C. Competition radioligand binding data was analyzed using a four parameter logistic equation and iterative curve-fitting techniques to obtain estimates of the IC50 and Hill slope. Kd values, determined from saturation binding studies were then used to calculate inhibition dissociation constants (Ki).

5-HT2A receptor = molecular target: T4, 5-HT2A receptor (Homo sapiens, UniProt P28223); test: 5-HT2A receptor binding, [3H]ketanserin competition (counter screen); conditions: read-out: Receptor Affinity: pK Values 5-HT2A receptor (converted)
T4 construct: expressed in transfected cells; host or cells: HEK293
Method: 5-HT2A receptors were labelled with [^3H]ketanserin in human cortex, in HEK293 cells expressing a cloned human 5-HT2A receptor and in HEK293 cells expressing the rat 5-HT2A receptor. For competition binding studies the ligand concentration was approximately 0.1 nM. For saturation binding studies concentrations of radioligand ranged from 0.01 nM to 2.0 nM. Assays were conducted in 0.5 ml of assay buffer (50 mM Tris-HCl, 4 mM calcium chloride, 0.1 % by weight ascorbic acid) (pH 7.4 at 4°C). Non-specifc binding was defined with […] unlabelled ketanserin. After a 60 min incubation at 32°C, membranes were harvested onto filters treated with 0.1 % by weight of polyethylenimine and the bound radioactivity was determined. Competition radioligand binding data was analyzed using a four parameter logistic equation and iterative curve-fitting techniques to obtain estimates of the IC50 and Hill slope. Kd values, determined from saturation binding studies were then used to calculate inhibition dissociation constants (Ki).

T4 sequence (P28223 whole entry): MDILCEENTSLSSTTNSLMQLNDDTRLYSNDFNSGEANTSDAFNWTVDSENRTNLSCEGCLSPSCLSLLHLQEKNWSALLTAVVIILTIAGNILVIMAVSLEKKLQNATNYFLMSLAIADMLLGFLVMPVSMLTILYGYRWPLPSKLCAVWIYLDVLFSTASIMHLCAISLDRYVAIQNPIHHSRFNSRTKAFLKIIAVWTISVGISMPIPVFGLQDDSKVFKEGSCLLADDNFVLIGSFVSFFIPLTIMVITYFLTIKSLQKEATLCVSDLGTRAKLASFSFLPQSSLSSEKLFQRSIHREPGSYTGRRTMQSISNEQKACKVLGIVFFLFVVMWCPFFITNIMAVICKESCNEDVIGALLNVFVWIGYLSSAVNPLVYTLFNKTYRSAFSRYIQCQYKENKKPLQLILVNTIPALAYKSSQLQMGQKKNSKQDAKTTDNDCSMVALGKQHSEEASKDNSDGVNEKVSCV
T1 sequence (P35367 whole entry): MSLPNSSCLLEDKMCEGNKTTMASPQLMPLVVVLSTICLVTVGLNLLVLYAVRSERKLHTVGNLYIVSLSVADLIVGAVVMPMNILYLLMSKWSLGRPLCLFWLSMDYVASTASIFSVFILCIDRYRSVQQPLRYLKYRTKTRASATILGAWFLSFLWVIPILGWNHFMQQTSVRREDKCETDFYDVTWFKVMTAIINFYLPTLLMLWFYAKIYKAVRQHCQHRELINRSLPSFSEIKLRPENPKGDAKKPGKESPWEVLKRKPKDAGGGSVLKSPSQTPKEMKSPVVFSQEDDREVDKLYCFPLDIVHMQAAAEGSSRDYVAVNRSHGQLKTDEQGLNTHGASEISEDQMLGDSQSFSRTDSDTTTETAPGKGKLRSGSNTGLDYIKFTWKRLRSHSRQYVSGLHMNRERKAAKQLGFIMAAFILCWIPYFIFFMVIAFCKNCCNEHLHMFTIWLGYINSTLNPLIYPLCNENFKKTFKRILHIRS
T3 sequence (P41595 whole entry): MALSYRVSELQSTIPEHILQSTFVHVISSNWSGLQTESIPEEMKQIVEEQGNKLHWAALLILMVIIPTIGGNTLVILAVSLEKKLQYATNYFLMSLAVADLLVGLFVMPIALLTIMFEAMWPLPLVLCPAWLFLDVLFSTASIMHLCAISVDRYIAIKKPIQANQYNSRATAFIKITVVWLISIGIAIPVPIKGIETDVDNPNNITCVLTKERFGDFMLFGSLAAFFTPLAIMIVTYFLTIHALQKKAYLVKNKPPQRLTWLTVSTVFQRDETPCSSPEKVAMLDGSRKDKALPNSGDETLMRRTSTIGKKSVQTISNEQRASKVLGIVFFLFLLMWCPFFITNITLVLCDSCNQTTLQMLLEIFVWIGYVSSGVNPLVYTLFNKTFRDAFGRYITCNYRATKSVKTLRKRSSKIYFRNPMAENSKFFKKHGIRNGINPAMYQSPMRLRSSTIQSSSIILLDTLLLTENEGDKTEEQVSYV

SMILES	Ki (human H1 receptor)	Ki (5-HT2C receptor)	Ki (human 5-HT2B receptor)	Ki (5-HT2A receptor)
CCOc1ccc2c(c1)Sc1cccc(OC)c1C2=C1CCN(C)CC1 [4-(6-Ethoxy-1-methoxy-thioxanthen-9-yliden)-1-methyl-piperidine]	3.72 nM	17 nM	0.0447 nM	1.02 nM
CCOc1ccc2c(c1)Sc1cccc(O)c1C2=C1CCN(C)CC1 [4-(6-Ethoxy-1-hydroxy-thioxanthen-9-yliden)-1-methyl-piperidine]	36.3 nM	13.8 nM	0.0115 nM	1.51 nM
COc1ccc2c(c1)Sc1cccc(OC)c1C2=C1CCN(C)CC1 [4-(6-Methoxy-1-methoxy-thioxanthen-9-yliden)-1-methyl-piperidine]	0.129 nM	1.55 nM	0.00871 nM	0.0427 nM
CC(C)c1ccc2c(c1)Sc1cccc(O)c1C2=C1CCN(C)CC1 [4-(6-Isopropyl-1-hydroxy-thioxanthen-9-yliden)-1-methyl-piperidine]	35.5 nM	30.2 nM	0.12 nM	0.776 nM
COc1cccc2c1C(=C1CCN(C)CC1)c1ccc(C(C)C)cc1S2 [4-(6-Isopropyl-1-methoxy-thioxanthen-9-yliden)-1-methyl-piperidine]	10.5 nM	16.2 nM	0.17 nM	0.741 nM
CCOc1ccc2c(c1)Nc1ccccc1C2=C1CCN(C)CC1 [3-Ethoxy-9-(1-methyl-piperidine-4-ylidene)-9,10-dihydro-acridine]	29.5 nM	37.2 nM	0.741 nM	1.17 nM
